According to patent US20220356163A1, “SMALL MOLECULE INHIBITORS OF Id PROTEINS” (MEMORIAL SLOAN KETTERING CANCER CENTER, priority 2019, published 2022):

Key:
HUVEC = HUVEC growth, cell cycle and Cyclin D1; assay type: cell-based, human
Description: Immunoblotting. For immunoblotting, cells were collected by trypsinization, washed with PBS and lysed in homogenization buffer (0.3 M sucrose, 10 mM Tris (pH 8.0), 400 mM sodium chloride, 3 mM magnesium chloride, 0.5% NP40/IGEPAL, 100 μg/mL Aprotinin+Protease inhibitor cocktail (Roche #11 836 153 001). Proteins were separated by SDS-PAGE, transferred to a membrane (LI-COR), probed with primary antibodies overnight at 4° C., and probed with secondary antibodies (LI-COR) for 1-2 hours at room temperature. Proteins were visualized using the LI-COR Odyssey Infrared Imaging detection system. The following primary antibodies were used Id1, Id2, Id3, Id4 (195-14, 9-2-8, 17-3, 82-12, respectively, all from Biocheck), Cyclin D1 (2978, Cell Signaling), Actin (A2066, Sigma), Tubulin (T4026, Sigma). Western blot quantification was carried out using channel 700 and channel 800 intensity data from Odyssey application software version 3.0.30 (LI-COR), subtracting blank values and normalizing to Tubulin.
Cell viability assays. Cell lines were seeded in a 96 well plate (5000 cells per well). After overnight incubation, cells were treated with AGX51 and incubated for 24 hours then MTT reagent (5 mg/mL) was added per well and the cells were incubated for four hours. Following incubation, media was aspirated and 200 μL DMSO was added per well. Absorbance was then measured at 570 nm using a plate reader (Synergy 2, BioTek). Cell growth profiles were determined by seeding 38,000 cells in a 24-well plate, in triplicate for each time point, and counting the cells on days 1, 3 and 5 after seeding, using trypan blue exclusion of dead cells.
Cell cycle analysis. […] For cell cycle analysis cells were centrifuged 1000 rpm for 5 minutes, washed with 1×PBS and then resuspended in 0.5 mL PI/RNase staining buffer (550825, BD Biosciences), incubated for 15 minutes at room temperature and analyzed by flow cytometry (LSR II).

[1] = system: retinal neovascularization; test: Retinopathy of prematurity (ROP) model; assay type: in vivo, mouse; conditions: intraocular injection 10 μg at P12, assessed P17, p<0.01
Description: In the ROP experiment 26 C57BL/6 pups, 36 Id^−/− and 22 Id3^−/− pups were place in 75% O2 at P7. On P12 the mice were returned to room air and at P17 they were euthanized and retinal neovascularization was measured as described above. In the AGX51 ROP experiment, C57BL/6 pups were place in 75% O2 at P7. On P12 the mice were returned to room air and injected in the eye with 10 μg AGX51 or DMSO in the FE (N=15 mice/group). On P17 they were euthanized and retinal neovascularization was measured as described above. Retinal neovascularization pathology can also be studied in mouse models of retinopathy of prematurity (ROP). In this model, post-natal day (P) 7 mice are placed in a 75% O2 chamber, which causes retinal capillary depletion. At P12, the mice are returned to room air, which leads to the development of retinal ischemia and proliferative vascular disease in the retinal vasculature. When this model was applied to Id1 or Id3 knockout mice, a significant decrease in retinal neovascularization was observed (p<0.0001) compared to wild type mice (FIG. 1C).

ID1-E47 = target: T1, ID1-E47 (Homo sapiens, UniProt P41134); test: Immunoprecipitation of endogenous ID1 and E47 in HCT116 cells; assay type: cell-based; conditions: 60 μM, one hour
T1 construct: host or cells: HCT116
T1 sequence (P41134 whole entry): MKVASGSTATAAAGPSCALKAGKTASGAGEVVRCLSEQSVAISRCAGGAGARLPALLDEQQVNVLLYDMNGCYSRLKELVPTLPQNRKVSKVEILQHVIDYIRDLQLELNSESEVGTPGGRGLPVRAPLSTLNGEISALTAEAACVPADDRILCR
Description: Immunoprecipitation. Cells were lysed in NP40 lysis buffer (50 mM Tris-HCl, pH 7.5, 150 mM NaCl, 1 mM EDTA, 1% NP40, 1.5 mM Na3VO4, 50 mM sodium fluoride, 10 mM sodium pyrophosphate, 10 mM P-glycerolphosphate and EDTA free protease inhibitor cocktail (Roche)) or RIPA buffer (50 mM Tris-HCl, pH 7.5, 150 mM NaCl, 1 mM EDTA, 1% NP40, 0.5% Sodium Deoxycholate, 0.1% Sodium dodecyl sulfate, 1.5 mM Na3VO4, 50 mM sodium fluoride, 10 mM sodium pyrophosphate, 10 mM P-glycerolphosphate and EDTA free protease inhibitor cocktail (Roche)). Lysates were cleared by centrifuge at 15,000 rpm for 15 minutes at 4° C. For immunoprecipitation, cell lysates were incubated with primary antibody (FLAG M2 affinity gel, Sigma, F2426; ID1 (C-20), Santa Cruz, sc-488; E2A (N-649), Santa Cruz, sc-763) and protein G/A beads (Santa Cruz, sc-2003) at 4° C. overnight. Beads were washed with lysis buffer four times and eluted in 2×SDS sample buffer. Protein samples were separated by SDS-PAGE and transferred to a polyvinylidene fluoride (PVDF) membrane. Membranes were blocked in TBS containing 5% non-fat milk and 0.1% Tween20, and probed with primary antibodies. […]

[2] = system: cholangiocarcinoma cells (SNU1079, SNU1196); test: AGX-A cyclodextrin formulations on cholangiocarcinoma cells (24 hour cell viability); assay type: cell-based
Description: To overcome the issue DMSO posed, investigations were performed to develop a formulation that was compatible with AGX-A as well as well-suited for administration.
Ultimately, a particularly efficacious formulation employing 2-hydroxypropyl-β-cyclodextrin (“HPBCD”) was discovered. […] Representative data is illustrated in FIGS. 25A-25B which provide the results of 24 hour cell viability studies for SNU1079 cells and SNU1196 cells, respectively.

Row | Structure (SMILES) | Cyclin D1 levels (HUVEC; 0-40 μM, 24 hours) | cell viability (HUVEC; 20 μM) | cell cycle (HUVEC; 20 μM, 24 hours) | retinal neovascularization [1] | co-precipitated ID1/E47 proteins (ID1-E47) | AGX-A activity against cholangiocarcinoma cells ([2]; aqueous solution with HPBCD, 24 hour) | AGX-A induced cell death ([2]; formulations with sulfobutylether-β-cyclodextrin (CAPTISOL))
1 | CCC(=O)N(CCC(c1ccc2c(c1)OCO2)c1ccccc1OC)Cc1ccccc1 (racemic) [AGX51, N-(3-(benzo[d][1,3]dioxol-5-yl)-3-(2-methoxyphenyl)propyl)-N-benzylpropionamide] | reduction in Cyclin D1 levels | reduced cell viability | G0/G1 growth arrest | significantly reduced retinal neovascularization | markedly reduced the levels of the co-precipitated proteins |  | 
2 | COc1ccccc1C(CCNCc1ccccc1)c1ccc(OC(C)C)cc1 (stereo not shown) [AGX-A, N-benzyl-3-(4-isopropoxyphenyl)-3-(2-methoxyphenyl)propan-1-anine] |  |  |  |  |  | preserving AGX-A activity | neutralized AGX-A induced cell death
